According to patent publication US20100028266A1, “Composition and methods for treating allergic response” (Alpha Synergy Development. Inc., priority 2008, published 2010):

Experiments:
[1] = system: eyes of a patient with an ocular condition (baseline redness 4/4); settings: brimonidine at 0.01%, 0.02%, […] (left eye) compared with tetrahydrozoline 0.05%, oxymetazoline […], naphazoline […] (right eye)
From the text: In an average clinical situation, baseline redness is at 1-1.5/4.

[2] = system: patients with chronic red eyes; assay: Example 5: chronic red eyes, one eye each treatment, patient satisfaction assessment; type: in vivo, human
Description: The treatment was through drops twice a day for three to five weeks. At the end, patient satisfaction assessment was conducted.

[3] = system: eyes of a patient with an ocular condition of moderate hyperemia; assay: FIGS. 5A-C: reversal of pre-induced rebound hyperemia; type: in vivo, human; settings: brimonidine at […] given after VISINE Original
From the text: FIG. 5A is a baseline visual appearance of two eyes of a patient with an ocular condition.

With `Brc1c(N=C2NCCN2)ccc2nccnc12.O=C(O)C(O)C(O)C(=O)O` [brimonidine, 5-bromo-6-(2-imidazolidinylideneamino)quinoxaline L-tartrate] the “scleral whitening brightening effects” value [1] was “significant scleral whitening brightening effects”, the “patients who preferred the treatment” value ([2]; brimonidine at […] in one eye, Naphcon-A in the other, twice a day for three to five weeks) was 42% and the patient-reported redness ([2]; brimonidine at […], drops twice a day for three to five weeks) was “All patients reported reduced redness”. For the same compound, the “effect on VISINE Original induced rebound hyperemia, right eye” value [3] was “reversing the VISINE Original® induced rebound hyperemia”.
